# Experimental data from ChEMBL document CHEMBL3297661, “1-Substituted-5-[(3,5-dinitrobenzyl)sulfanyl]-1H-tetrazoles and their isosteric analogs: A new class of selective antitubercular agents active against drug-susceptible and multidrug-resistant mycobacteria” (Eur J Med Chem, 2014).
# System: Mycobacterium tuberculosis
# Experiment: Antimycobacterial activity against Mycobacterium tuberculosis CNCTC My 331/88 after 14 days by micromethod
# Assay type: functional
# Details: CNCTC My 331/88, 336 h
row,Compound,MIC [µM]
1,O=[N+]([O-])c1cc(C[Se]c2nnnn2-c2ccccc2)cc([N+](=O)[O-])c1,8
2,O=[N+]([O-])c1cc(C[S+]([O-])c2nnnn2-c2ccccc2)cc([N+](=O)[O-])c1 (stereo not given),62
3,O=[N+]([O-])c1cc(CSc2nnnn2-c2cccc(F)c2)cc([N+](=O)[O-])c1,16
4,Nn1nnnc1SCc1cc([N+](=O)[O-])cc([N+](=O)[O-])c1,8
5,CCCCCCn1nnnc1SCc1cc([N+](=O)[O-])cc([N+](=O)[O-])c1,1

# System: Mycobacterium tuberculosis
# Experiment: Antimycobacterial activity against Mycobacterium tuberculosis CNCTC My 331/88 after 21 days by micromethod
# Assay type: functional
# Details: CNCTC My 331/88, 504 h
row,Compound,MIC [µM]
1,O=[N+]([O-])c1cc(C[Se]c2nnnn2-c2ccccc2)cc([N+](=O)[O-])c1,8
2,O=[N+]([O-])c1cc(C[S+]([O-])c2nnnn2-c2ccccc2)cc([N+](=O)[O-])c1 (stereo not given),62
3,O=[N+]([O-])c1cc(CSc2nnnn2-c2cccc(F)c2)cc([N+](=O)[O-])c1,32
4,Nn1nnnc1SCc1cc([N+](=O)[O-])cc([N+](=O)[O-])c1,16
5,CCCCCCn1nnnc1SCc1cc([N+](=O)[O-])cc([N+](=O)[O-])c1,2

# System: Mycobacterium avium
# Experiment: Antimycobacterial activity against Mycobacterium avium CNCTC My 330/88 after 14 days by micromethod
# Assay type: functional
# Details: CNCTC My 330/88, 336 h
row,Compound,MIC [µM]
1,O=[N+]([O-])c1cc(C[Se]c2nnnn2-c2ccccc2)cc([N+](=O)[O-])c1,32
2,O=[N+]([O-])c1cc(C[S+]([O-])c2nnnn2-c2ccccc2)cc([N+](=O)[O-])c1 (stereo not given),125
3,O=[N+]([O-])c1cc(CSc2nnnn2-c2cccc(F)c2)cc([N+](=O)[O-])c1,250
4,Nn1nnnc1SCc1cc([N+](=O)[O-])cc([N+](=O)[O-])c1,1000
5,CCCCCCn1nnnc1SCc1cc([N+](=O)[O-])cc([N+](=O)[O-])c1,32

# System: Mycobacterium avium
# Experiment: Antimycobacterial activity against Mycobacterium avium CNCTC My 330/88 after 21 days by micromethod
# Assay type: functional
# Details: CNCTC My 330/88, 504 h
row,Compound,MIC [µM]
1,O=[N+]([O-])c1cc(C[Se]c2nnnn2-c2ccccc2)cc([N+](=O)[O-])c1,32
2,O=[N+]([O-])c1cc(C[S+]([O-])c2nnnn2-c2ccccc2)cc([N+](=O)[O-])c1 (stereo not given),125
3,O=[N+]([O-])c1cc(CSc2nnnn2-c2cccc(F)c2)cc([N+](=O)[O-])c1,250
4,Nn1nnnc1SCc1cc([N+](=O)[O-])cc([N+](=O)[O-])c1,1000
5,CCCCCCn1nnnc1SCc1cc([N+](=O)[O-])cc([N+](=O)[O-])c1,62

# System: Mycobacterium kansasii
# Experiment: Antimycobacterial activity against Mycobacterium kansasii CNCTC My 235/80 after 7 days by micromethod
# Assay type: functional
# Details: CNCTC My 235/80, 168 h
row,Compound,MIC [µM]
1,O=[N+]([O-])c1cc(C[Se]c2nnnn2-c2ccccc2)cc([N+](=O)[O-])c1,8
2,O=[N+]([O-])c1cc(C[S+]([O-])c2nnnn2-c2ccccc2)cc([N+](=O)[O-])c1 (stereo not given),62
3,O=[N+]([O-])c1cc(CSc2nnnn2-c2cccc(F)c2)cc([N+](=O)[O-])c1,4
4,Nn1nnnc1SCc1cc([N+](=O)[O-])cc([N+](=O)[O-])c1,8
5,CCCCCCn1nnnc1SCc1cc([N+](=O)[O-])cc([N+](=O)[O-])c1,2

# System: Mycobacterium kansasii
# Experiment: Antimycobacterial activity against Mycobacterium kansasii CNCTC My 235/80 after 14 days by micromethod
# Assay type: functional
# Details: CNCTC My 235/80, 336 h
row,Compound,MIC [µM]
1,O=[N+]([O-])c1cc(C[Se]c2nnnn2-c2ccccc2)cc([N+](=O)[O-])c1,8
2,O=[N+]([O-])c1cc(C[S+]([O-])c2nnnn2-c2ccccc2)cc([N+](=O)[O-])c1 (stereo not given),250
3,O=[N+]([O-])c1cc(CSc2nnnn2-c2cccc(F)c2)cc([N+](=O)[O-])c1,4
4,Nn1nnnc1SCc1cc([N+](=O)[O-])cc([N+](=O)[O-])c1,32
5,CCCCCCn1nnnc1SCc1cc([N+](=O)[O-])cc([N+](=O)[O-])c1,4

# System: Mycobacterium kansasii
# Experiment: Antimycobacterial activity against Mycobacterium kansasii CNCTC My 235/80 after 21 days by micromethod
# Assay type: functional
# Details: CNCTC My 235/80, 504 h
row,Compound,MIC [µM]
1,O=[N+]([O-])c1cc(C[Se]c2nnnn2-c2ccccc2)cc([N+](=O)[O-])c1,16
2,O=[N+]([O-])c1cc(C[S+]([O-])c2nnnn2-c2ccccc2)cc([N+](=O)[O-])c1 (stereo not given),250
3,O=[N+]([O-])c1cc(CSc2nnnn2-c2cccc(F)c2)cc([N+](=O)[O-])c1,8
4,Nn1nnnc1SCc1cc([N+](=O)[O-])cc([N+](=O)[O-])c1,32
5,CCCCCCn1nnnc1SCc1cc([N+](=O)[O-])cc([N+](=O)[O-])c1,8

# System: Mycobacterium kansasii
# Experiment: Antimycobacterial activity against Mycobacterium kansasii 6509/96 after 7 days by micromethod
# Assay type: functional
# Details: 6509/96, 168 h
row,Compound,MIC [µM]
1,O=[N+]([O-])c1cc(C[Se]c2nnnn2-c2ccccc2)cc([N+](=O)[O-])c1,16
2,O=[N+]([O-])c1cc(C[S+]([O-])c2nnnn2-c2ccccc2)cc([N+](=O)[O-])c1 (stereo not given),125
3,O=[N+]([O-])c1cc(CSc2nnnn2-c2cccc(F)c2)cc([N+](=O)[O-])c1,4
4,Nn1nnnc1SCc1cc([N+](=O)[O-])cc([N+](=O)[O-])c1,16
5,CCCCCCn1nnnc1SCc1cc([N+](=O)[O-])cc([N+](=O)[O-])c1,2

# System: Mycobacterium kansasii
# Experiment: Antimycobacterial activity against Mycobacterium kansasii 6509/96 after 14 days by micromethod
# Assay type: functional
# Details: 6509/96, 336 h
row,Compound,MIC [µM]
1,O=[N+]([O-])c1cc(C[Se]c2nnnn2-c2ccccc2)cc([N+](=O)[O-])c1,16
2,O=[N+]([O-])c1cc(C[S+]([O-])c2nnnn2-c2ccccc2)cc([N+](=O)[O-])c1 (stereo not given),250
3,O=[N+]([O-])c1cc(CSc2nnnn2-c2cccc(F)c2)cc([N+](=O)[O-])c1,8
4,Nn1nnnc1SCc1cc([N+](=O)[O-])cc([N+](=O)[O-])c1,32
5,CCCCCCn1nnnc1SCc1cc([N+](=O)[O-])cc([N+](=O)[O-])c1,4

# System: Mycobacterium kansasii
# Experiment: Antimycobacterial activity against Mycobacterium kansasii 6509/96 after 21 days by micromethod
# Assay type: functional
# Details: 6509/96, 504 h
row,Compound,MIC [µM]
1,O=[N+]([O-])c1cc(C[Se]c2nnnn2-c2ccccc2)cc([N+](=O)[O-])c1,32
2,O=[N+]([O-])c1cc(C[S+]([O-])c2nnnn2-c2ccccc2)cc([N+](=O)[O-])c1 (stereo not given),250
3,O=[N+]([O-])c1cc(CSc2nnnn2-c2cccc(F)c2)cc([N+](=O)[O-])c1,8
4,Nn1nnnc1SCc1cc([N+](=O)[O-])cc([N+](=O)[O-])c1,32
5,CCCCCCn1nnnc1SCc1cc([N+](=O)[O-])cc([N+](=O)[O-])c1,8
